Assay results published in article PMC1458349, “Evaluation of high-dose daptomycin for therapy of experimental Staphylococcus aureus foreign body infection” (BMC Infectious Diseases, 2006).
Values after ≈ are worked out from the molar mass of the structure shown. Values joined by “and” are separate entries in the source; they are usually repeats but may differ in a detail not shown here. Identical values can stand only once. Like-named read-outs stand apart in the source and are kept apart here.

How the values were obtained:
[1] = Pharmacokinetic levels in rat tissue cage fluid (TCF)
Protocol: (§1) For each time point, the mean (± SEM) daptomycin levels in plasma from four animals was determined.

[2] = Pharmacokinetic levels in rat plasma; details: 30 mg/kg i.p. twice daily, day 4
Protocol: as §1

[3] = Screening of side effects: serum liver, kidney and muscle markers; assay type: in vivo, rat
Protocol: To check for potential side effects of the twice-daily 30 mg/kg daptomycin regimen, serum samples of the daptomycin-treated and control rats were collected at day 8 for determination of liver, kidney, and muscle enzyme markers, namely aspartate aminotransferase (ASAT) and alanine aminotransferase (ALAT) activities, serum creatinine, and creatine kinase, respectively, using standard analytical methods.

[4] = rats, cited from earlier work
[5] = tested on: methicillin-susceptible S. aureus (MSSA) strain I20; assay: microbe, parasite or virus in culture; assay type: cell-based, Staphylococcus aureus
Protocol: To screen for the possible carryover effects of each antibiotic during the MBC determinations, 0.1-mL portions were taken from all tubes with no visible growth. These were subcultured, either undiluted or diluted 10-fold in saline, on Mueller-Hinton agar (MHA) for 36 h at 37°C. The MBC was defined as the lowest concentration that killed 99.9% of the original inoculum. Each MIC and MBC determination was performed three times and the modal values are presented. In additional control experiments, MICs and MBCs were performed in CAMHB supplemented with 50% TCF.

[6] = in vivo; details: rat, plasma, ip, 30 mg/kg
Protocol: as §1

[7] = in vivo; details: Wistar, rat, tissue cage fluid (TCF), ip, 30 mg/kg
Protocol: as §1

[8] = rats, 30 mg/kg once daily, cited from earlier work
[9] = rat, in vivo, cited from earlier work
[10] = tested on: MSSA strain I20; assay type: in vivo, Staphylococcus aureus; details: Wistar rats, i.p. twice daily for 7 days: daptomycin 30 mg/kg, oxacillin 200 mg/kg, vancomycin 50 mg/kg, mean ± SEM, n = 18-19 cages; for average counts in tissue cages at the end of the 7-day therapy: TCF cultured 12 h after last dose; for reduction in bacterial counts in TCF (delta log10 CFU/mL, day 1 to day 8): P < 0.001 vs untreated
Protocol: All animal studies of the daptomycin no 1-study were performed in 1991. These animal studies followed ethical guidelines of that time period and received legal approval from the Veterinary Office of the State of Geneva. Subcutaneous surgical implantation of four tissue cages per animal was performed as described by using Wistar rats that were anaesthetised with an intraperitoneal (i.p.) injection of a mixture of ketamine (90 mg/kg) and xylazine (5 mg/kg). At 3 weeks post-implantation, TCF was aspirated and checked for sterility. To establish a chronic S. aureus infection, tissue cages were inoculated with 0.1 mL of saline containing 0.2 × 10^6 to 2 × 10^6 CFU of a washed overnight culture of strain I20 in CAMHB. Three weeks later, all tissue cages containing more than 10^5 CFU/mL of TCF were included in the therapeutic protocols.
Rats infected with strain I20 were randomised to receive (by the i.p. route for 7 days) twice-daily regimens of either daptomycin (30 mg/kg), oxacillin (200 mg/kg), or vancomycin (50 mg/kg), or were left untreated. At 12 h after the last injection of antibiotic, quantitative cultures of 10-fold serially diluted TCF were performed on MHA. To optimise the yield of viable bacteria, TCF were briefly sonicated (60 W, 1 min) to disrupt the biofilm and phagocytic cells before the serial dilutions and plating. Plates were incubated for 24-48 h at 37°C. The detection limit was one colony equivalent to 2 log10 CFU/mL of TCF. The differences in CFU counts between day 1 and day 8 were determined and expressed as delta log10CFU/mL. For each treatment group, results were expressed as means ± standard errors of the means (SEM). Comparison of bacterial counts in the different groups was performed by ANOVA and Newman-Keuls multiple comparisons procedures using Microsoft Excel® 2000 software. Data were considered significant when P was < 0.05 by using two-tailed significance levels.

[11] = tested on: MSSA strain I20; assay: Killing kinetic (time-kill) studies; assay type: cell-based, Staphylococcus aureus; details: 8 mg/L in CAMHB; 10^6 CFU exponential-phase; 37°C; one representative of three experiments
Protocol: 0.1-mL portions containing 10^6 CFU of strain I20 (obtained from exponential-phase cultures) were added to sterile plastic tubes containing 1 mL of either CSMHB containing 8 mg/L of daptomycin, or CAMHB containing 8 mg/L of oxacillin or vancomycin, in a shaking waterbath at 37°C. The number of viable organisms was determined by subculturing 50 μL of 10-fold diluted portions on MHA after 0, 2, 4, 6, and 24 h of incubation. Colonies were enumerated with a laser colony counter (Spiral System) after 48 h of incubation at 37°C. The detection limit was 2 log10 CFU/mL. […] Each killing kinetic experiment was repeated three times and results from one representative experiment are presented.

[12] = tested on: methicillin-susceptible S. aureus (MSSA) strain I20; assay: MIC, standard tube macrodilution (CLSI); assay type: cell-based; details: Staphylococcus aureus
Protocol: The methicillin-susceptible S. aureus (MSSA) strain I20 is a previously described clinical isolate from catheter-related sepsis, which is highly virulent in the rat model of chronic S. aureus tissue cage infection. Strain I20 is uniformly susceptible to all antibiotics except penicillin.
The MICs of oxacillin and vancomycin for strain I20 were determined in cation-adjusted Mueller-Hinton broth (CAMHB) containing 20-25 mg/L Ca^2+ and 10-12.5 mg/L Mg^2+ by the standard tube macrodilution method with an average inoculum of 10^6 CFU/mL as described by the Clinical Laboratory Standards Institute (CLSI). For daptomycin MIC, CAMHB was supplemented with additional calcium to a physiological concentration of 50 mg/L Ca^2+ (CSMHB).
Each MIC and MBC determination was performed three times and the modal values are presented. In additional control experiments, MICs and MBCs were performed in CAMHB supplemented with 50% TCF.

[13] = twice-daily oxacillin 200 mg/kg or vancomycin 50 mg/kg
[14] = Staphylococcus aureus, MSSA, CAMHB, lowest concentration killing 99.9% of inoculum, subculture on MHA 36 h 37°C, modal value of 3, read-out: MBC

CCCCCCCCCC(=O)N[C@@H](Cc1c[nH]c2ccccc12)C(=O)N[C@H](CC(N)=O)C(=O)N[C@@H](CC(=O)O)C(=O)N[C@@H]1C(=O)NCC(=O)N[C@@H](CCCN)C(=O)N[C@@H](CC(=O)O)C(=O)N[C@H](C)C(=O)N[C@@H](CC(=O)O)C(=O)NCC(=O)N[C@H](CO)C(=O)N[C@@H]([C@H](C)CC(=O)O)C(=O)N[C@@H](CC(=O)c2ccccc2N)C(=O)O[C@@H]1C [daptomycin]
TCF AUC0-24h ([1]; rats, 30 mg/kg i.p. twice daily, day 4, AUC0-12 by linear trapezoidal rule multiplied by two): 1073 µg·h/mL
TCF AUC0-24h as percentage of plasma AUC0-24h ([1]; rats, 30 mg/kg twice-daily regimen (printed as daptomycin no 2-study)): 64%
mean peak level in TCF ([1]; uninfected rats, 30 mg/kg i.p. twice daily, day 4, microbiological assay, mean of six animals): 66 mg/L
plasma AUC0-24h ([2]; rats, AUC0-12 by linear trapezoidal rule multiplied by two): 1667 µg·h/mL
mean peak plasma level ([2]; uninfected rats, at 1 h, microbiological assay, mean of four animals): 173 mg/L
exterior signs of toxicity ([3]; rats receiving twice-daily doses (30 mg/kg)): No exterior sign of toxicity
liver toxicity (overall assessment) ([3]; rats treated with high-dose daptomycin (30 mg/kg twice daily, 7 days)): only mild liver toxicity
ALAT (alanine aminotransferase) activity in serum ([3]; rats, 30 mg/kg i.p. twice daily for 7 days, serum at day 8, n = 5, control 41 ± 11): 46 ± 9 IU/L
serum creatinine ([3]; rats, 30 mg/kg i.p. twice daily for 7 days, serum at day 8, n = 5, control 50 ± 5): 53 ± 5 μM/L
ASAT (aspartate aminotransferase) activity in serum ([3]; rats, 30 mg/kg i.p. twice daily for 7 days, serum at day 8, n = 5, control 146 ± 36): 216 ± 24 IU/L
creatine kinase in serum ([3]; rats, 30 mg/kg i.p. twice daily for 7 days, serum at day 8, n = 5, control 1349 ± 820): 1393 ± 886 IU/L
TCF AUC0-24h as percentage of plasma AUC0-24h ([4]; 30 mg/kg daily regimen (printed as daptomycin no 1-study)): 35%
TCF AUC0-24h ([4]; 30 mg/kg once daily): 196 µg·h/mL
TCF level at 12 h (intermediate value) ([4]; 30 mg/kg once daily): 10.0 mg/L
mean peak level in TCF ([4]; 30 mg/kg once daily): 11.8 mg/L
mean trough level in TCF ([4]; 30 mg/kg once daily): 3.4 mg/L
MBC ([5]; methicillin-susceptible strain I20, 36 h): 1 µg/mL (≈ 0.617 µM)
level at 12 h [6]: 9100 ng/mL
level at 4 day [7]: 21000 ng/mL
plasma AUC0-24h [8]: 558 µg·h/mL
peak plasma level ([8]; day 4, HPLC): 141 mg/L
trough plasma level ([8]; day 4, HPLC): 0 mg/L
plasma level at 12 h ([8]; day 4): 1000 ng/mL
plasma AUC0-24h ([9]; 25 mg/kg): 278 µg·h/mL
plasma AUC0-24h ([9]; 40 mg/kg): 605 µg·h/mL

Cc1onc(-c2ccccc2)c1C(=O)N[C@@H]1C(=O)N2[C@@H]1SC(C)(C)[C@@H]2C(=O)O [oxacillin]
average counts in tissue cages at the end of the 7-day therapy [10]: 5.90 ± 0.25 log10 CFU/mL
reduction in bacterial counts in TCF (delta log10 CFU/mL, day 1 to day 8) [10]: 0.92 log10 CFU/mL and 0.92 ± 0.21 log10 CFU/mL
time after which reduction in viable counts exceeded 3 log10 CFU/mL [11]: 4 h
trough TCF level [4, 13]: 5.7 mg/L
MBC [5, 14]: 1 µg/mL (≈ 2.49 µM)
MIC ([12]; CAMHB (20-25 mg/L Ca2+, 10-12.5 mg/L Mg2+), tube macrodilution, inoculum 10^6 CFU/mL, modal value of 3 determinations, read-out: MIC): 0.5 µg/mL (≈ 1.25 µM)

CN[C@H](CC(C)C)C(=O)N[C@H]1C(=O)N[C@@H](CC(N)=O)C(=O)N[C@H]2C(=O)N[C@H]3C(=O)N[C@H](C(=O)N[C@H](C(=O)O)c4cc(O)cc(O)c4-c4cc3ccc4O)[C@H](O)c3ccc(c(Cl)c3)Oc3cc2cc(c3O[C@@H]2O[C@H](CO)[C@@H](O)[C@H](O)[C@H]2O[C@H]2C[C@](C)(N)[C@H](O)[C@H](C)O2)Oc2ccc(cc2Cl)[C@H]1O [vancomycin]
average counts in tissue cages at the end of the 7-day therapy [10]: 5.49 ± 0.21 log10 CFU/mL
reduction in bacterial counts in TCF (delta log10 CFU/mL, day 1 to day 8) [10]: 0.96 log10 CFU/mL and 0.96 ± 0.24 log10 CFU/mL
time after which reduction in viable counts exceeded 3 log10 CFU/mL [11]: 4 h
peak TCF level [4, 13]: 12 mg/L
trough TCF level [4, 13]: 2 mg/L
MBC [5, 14]: 2 µg/mL (≈ 1.38 µM)
MIC [12]: 1 µg/mL (≈ 0.69 µM)
